Laboratory results from ChEMBL document CHEMBL1128609, “Chemical synthesis and biological evaluation of 1d-1,2,4,5-InsP4 and its 3-fluorinated counterpart 1d-3-F-1,2,4,5-InsP4 potent 1d-1,4,5-InsP3-like calcium mobilizing analogues” (Bioorg Med Chem Lett, 1995).

Columns and labels:
[1] = Effective concentration required for Calcium release via the intracellular InsP3 receptor of SH-SY5Y cells; assay type: functional, cell-based; details: Homo sapiens
[2] = Inhibitory concentration required to displace [3H]insP3 from Inositol 1,4,5-trisphosphate receptor of bovine adrenal cortex membranes; assay type: tissue-based

SMILES	EC50 [1] [µM]	IC50 [2] [µM]
O=P(O)(O)OC1C(O)C(O)C(OP(=O)(O)O)C(OP(=O)(O)O)C1F (stereo unspecified)	5.42	0.269
O=P(O)(O)OC1C(O)C(OP(=O)(O)O)C(OP(=O)(O)O)C(F)C1OP(=O)(O)O (stereo unspecified)	0.1	0.0097
O=P(O)(O)O[C@@H]1[C@H](O)[C@H](O)[C@@H](OP(=O)(O)O)[C@H](OP(=O)(O)O)[C@H]1O [INS(1,4,5)P3]	0.0516	0.0055
